Laboratory results reported in patent US9861640B2, “Medicament for treatment of Alzheimer's disease” (KEMPHYS LTD., priority 2013, dated 2018).

Columns and labels:
full-length (fl)-APP = assay: Immunoblot of full-length APP in brains of APP23 mice; format: in vivo, mouse; settings: 8.5-month-old male APP23 mice; Am80 0.5 and/or HX630 5 mg/kg/d; day 18
Description: (§1) APP23 mice begin forming amyloid deposits when they are 6 months old, but memory deficits in the MWM test appear quite early (before 3 months of age). Here, we used 8.5-month-old male APP23 mice and their WT littermates (C57BL/6J). We used stratified random sampling to divide mice (four to six per cage) into four groups to equalize the mean body weight of the study groups: mice given 0.5 mg/kg/d Am80, those given 5 mg/kg/d HX630, those given the mixture of 0.5 mg/kg/d Am80 and 5 mg/kg/d HX630, and those given the vehicle. Am80 and HX630 were suspended in 0.5% (w/v) carboxymethylcellulose solution and were orally administered to mice at 0.5 mg/kg (Am80) or 5 mg/kg (HX630) for 17 consecutive days (once daily at 18:00). Control animals received the same volume of 0.5% (w/v) carboxymethylcellulose solution orally, without the other compounds. We set the 0.5 mg/kg/d dose for Am80 on the basis that this had been found effective in other in vivo studies, such as those by Kawahara et al. and Ishido and Shudo [37]. Higher doses of Am80 (3 mg/kg/d and 6 mg/kg/d) were also orally administered to mice for 17 consecutive days. Animals were weighed once a week. Mice were subjected to behavioral testing on days 15-18 of the first oral administration of the compounds (at 19:00-23:00). On days 15-17 (not day 18), animals received the compounds at 24:00, after behavioral testing. […]

APP23 mice = settings: earlier study [15]; oral Am80 0.5 mg/kg/d for 14 weeks; 5-month-old APP23 mice; cited from earlier work
[1] = normal male rats; 2 h after subcutaneous administration at 1 mg/kg; cited from earlier work
CD36 = assay: Immunoblot of CD36 in brains of APP23 mice; format: in vivo, mouse; settings: Am80 0.5 and/or HX630 5 mg/kg/d, day 18, whole-cell extracts
Description: as §1

IDE = assay: Immunoblot of IDE in brains of APP23 mice; format: in vivo, mouse; settings: day 18, vs vehicle-treated APP23 mice, P<0.05
Description: as §1

rat primary microglia = assay: Clearance of 125I-labeled oligomeric Aβ1-42 by rat primary microglia; format: cell-based; settings: 5 μM each 48 h, then 6 h with 125I-o-Aβ1-42 1 μg/ml, vs vehicle-treated cells
From the text: Primary microglia (type 1) were harvested from primary mixed glial cell cultures prepared from neonatal Wistar rat pups, as previously reported. Mouse microglial cell line MG5 and mouse glial cell line A1 were maintained as previously described. Mouse neuroblastoma cell line N1E-115 and Neuro 2a (American Type Culture Collection, Manassas, Va., USA) were maintained in Dulbecco's modified Eagle's medium (DMEM) supplemented with 10% fetal bovine serum (FBS), 20 U/ml penicillin (Invitrogen, Gaithersburg, Md., USA), and 20 μg/ml streptomycin (Invitrogen). Primary rat microglia were treated with Am80 (5 μM) and/or HX630 (5 μM) in the presence and absence of GW9662 (10 μM) for 48 h in Eagle's MEM supplemented with 10% FBS and 0.2% glucose. MG5 cells and A1 cells were treated with Am80 (5 μM) and/or HX630 (5 μM) for 48 h in DMEM containing 10% FBS. N1E-115 cells were treated with Am80 (5 μM) and/or HX630 (5 μM) for 5 days in DMEM containing 2% FBS.
^125I-Labeled oligomeric Aβ1-42 (o-Aβ1-42) was prepared as described. Cells were cultured in 24-well plates for 48 h in Eagle's MEM supplemented with 10% FBS in the presence or absence of Am80 (5 μM) and HX630 (5 μM). After the 48-h treatment, the cells were washed twice with labeling medium (DMEM containing 3% BSA) and then incubated with ^125I-labeled o-Aβ1-42 for 6 h at 37° C. Following the 6-h incubation, medium was removed from each well, and soluble radioactivity in TCA (degraded and extracellularly released peptide fragments) was determined as an index of Aβ degradation in the medium as described previously. The Aβ degradation activity may thus include both receptor-mediated phagocytic activity and extracellular protease-mediated degradation. Cells were washed three times with PBS, then lysed with 0.4 ml of 0.1 M NaOH for 30 min at 37° C., and cell-associated (including cell-incorporated) radioactivity and cell proteins were determined with an autogamma counter and the BCA Protein Assay Reagent (Pierce), respectively. We could not determine the activity of IDE-dependent degradation in this medium, because the incubation medium was replaced with labeling medium prior to incubation with ^[…].

Row | SMILES | total amount of full-length (fl)-APP in brain (full-length (fl)-APP) | behavioral benefits (APP23 mice) | cerebral tissue content of Am80 [1] | CD36 protein level in brain (immunoblot) (CD36) | IDE protein level in the membrane-bound fraction (IDE) | degradation activity towards 125I-labeled oligomeric Aβ1-42 (rat primary microglia)
1 | CC1(C)CCC(C)(C)c2cc(NC(=O)c3ccc(C(=O)O)cc3)ccc21 [Am80, 4-{(5,6,7,8-tetrahydro-5,5,8,8-tetramethyl-2-naphthalenyl)carbamoyl}benzoic acid] | had no effect | did not detect behavioral benefits | around 100 pmol/g tissue | – | – | –
2 | CN1c2ccccc2N=C(c2ccc(C(=O)O)cc2)c2cc3c(cc21)C(C)(C)CCC3(C)C [HX630, 4-[5H-2,3-(2,5dimethyl-2,5-hexano)-5-methyldibenzo[b,e]-diazepin-11-yl]benzoic acid] | had no effect | – | – | increased | increased significantly | increased
